Tested on: rodent lifetime carcinogenesis bioassay, tumor incidence TD50
Assay: carcinogenic potency in animals, long-term in vivo studies, CPDB compilation (AID 1745844)
Settings: in feed

OCC(CO)(CBr)CBr
TD50 (mouse, strain B6C3F1, females, site: Harderian gland + lung + subcutaneous tissue, lesion: adenoma + adenoma, bilateral + carcinoma + alveolar/bronchiolar adenoma + alveolar/bronchiolar carcinoma + fibrosarcoma + sarcoma, dosed 104 weeks, study length 106 weeks): 67.8 mg/kg/day | TD50 (mouse, strain B6C3F1, females, site: Harderian gland, lesion: adenoma + adenoma, bilateral + carcinoma, dosed 104 weeks, study length 106 weeks): 122 mg/kg/day | TD50 (mouse, strain B6C3F1, females, site: Harderian gland, lesion: adenoma + adenoma, bilateral, dosed 104 weeks, study length 106 weeks): 187 mg/kg/day | TD50 (mouse, strain B6C3F1, females, site: Harderian gland, lesion: carcinoma, dosed 104 weeks, study length 106 weeks): 323 mg/kg/day | TD50 (mouse, strain B6C3F1, females, site: all sites, lesion: hemangioma + hemangiosarcoma, dosed 104 weeks, study length 106 weeks): 846 mg/kg/day | TD50 (mouse, strain B6C3F1, females, site: all sites, lesion: hemangiosarcoma, dosed 104 weeks, study length 106 weeks): 1480 mg/kg/day | TD50 (mouse, strain B6C3F1, females, site: any site (literature study), lesion: several types, types named in the paper, dosed 104 weeks, study length 106 weeks): 57.3 mg/kg/day | TD50 (mouse, strain B6C3F1, females, site: forestomach, lesion: squamous-cell papilloma, dosed 104 weeks, study length 106 weeks): 446 mg/kg/day | TD50 (mouse, strain B6C3F1, females, site: liver, lesion: hepatocellular adenoma + hepatoblastoma + hepatocellular carcinoma, dosed 104 weeks, study length 106 weeks): 267 mg/kg/day | TD50 (mouse, strain B6C3F1, females, site: liver, lesion: hepatocellular adenoma, dosed 104 weeks, study length 106 weeks): 301 mg/kg/day | TD50 (mouse, strain B6C3F1, females, site: lung, lesion: alveolar/bronchiolar adenoma + alveolar/bronchiolar carcinoma, dosed 104 weeks, study length 106 weeks): 127 mg/kg/day | TD50 (mouse, strain B6C3F1, females, site: lung, lesion: alveolar/bronchiolar adenoma, dosed 104 weeks, study length 106 weeks): 171 mg/kg/day | TD50 (mouse, strain B6C3F1, females, site: lung, lesion: alveolar/bronchiolar carcinoma, dosed 104 weeks, study length 106 weeks): 398 mg/kg/day | TD50 (mouse, strain B6C3F1, females, site: mammary gland, lesion: carcinoma, dosed 104 weeks, study length 106 weeks): 1480 mg/kg/day | TD50 (mouse, strain B6C3F1, females, site: subcutaneous tissue, lesion: fibrosarcoma + sarcoma, dosed 104 weeks, study length 106 weeks): 322 mg/kg/day | TD50 (mouse, strain B6C3F1, females, site: subcutaneous tissue, lesion: sarcoma, dosed 104 weeks, study length 106 weeks): 350 mg/kg/day | TD50 (mouse, strain B6C3F1, males, site: Harderian gland + kidney + lung, lesion: adenoma + adenoma, bilateral + carcinoma + carcinoma, bilateral + tubule adenoma + alveolar/bronchiolar adenoma + alveolar/bronchiol, dosed 104 weeks, study length 105 weeks): 106 mg/kg/day | TD50 (mouse, strain B6C3F1, males, site: Harderian gland, lesion: adenoma + adenoma, bilateral + carcinoma + carcinoma, bilateral, dosed 104 weeks, study length 105 weeks): 155 mg/kg/day | TD50 (mouse, strain B6C3F1, males, site: Harderian gland, lesion: adenoma + adenoma, bilateral, dosed 104 weeks, study length 105 weeks): 191 mg/kg/day | TD50 (mouse, strain B6C3F1, males, site: any site (literature study), lesion: several types, types named in the paper, dosed 104 weeks, study length 105 weeks): 126 mg/kg/day | TD50 (mouse, strain B6C3F1, males, site: forestomach, lesion: squamous-cell carcinoma + squamous-cell papilloma, dosed 104 weeks, study length 105 weeks): 581 mg/kg/day | TD50 (mouse, strain B6C3F1, males, site: kidney, lesion: tubule adenoma, dosed 104 weeks, study length 105 weeks): 1190 mg/kg/day | TD50 (mouse, strain B6C3F1, males, site: liver, lesion: hepatocellular adenoma + hepatoblastoma + hepatocellular carcinoma, dosed 104 weeks, study length 105 weeks): 2480 mg/kg/day | TD50 (mouse, strain B6C3F1, males, site: lung, lesion: alveolar/bronchiolar adenoma + alveolar/bronchiolar carcinoma, dosed 104 weeks, study length 105 weeks): 218 mg/kg/day | TD50 (mouse, strain B6C3F1, males, site: lung, lesion: alveolar/bronchiolar adenoma, dosed 104 weeks, study length 105 weeks): 270 mg/kg/day | TD50 (mouse, strain B6C3F1, males, site: lung, lesion: alveolar/bronchiolar carcinoma, dosed 104 weeks, study length 105 weeks): 334 mg/kg/day | TD50 (mouse, strain B6C3F1, males, site: thyroid gland, lesion: follicular-cell adenoma, dosed 104 weeks, study length 105 weeks): 835 mg/kg/day | TD50 (rat, strain Fischer 344, females, site: all sites, lesion: mononuclear-cell leukemia, dosed 104 weeks, study length 105 weeks): 406 mg/kg/day | TD50 (rat, strain Fischer 344, females, site: any site (literature study), lesion: several types, types named in the paper, dosed 104 weeks, study length 105 weeks): 94.4 mg/kg/day | TD50 (rat, strain Fischer 344, females, site: esophagus + mammary gland + palate + thyroid gland + tongue, lesion: squamous-cell papilloma + adenoma + carcinoma + fibroadenoma + squamous-cell carcinoma + follicular-cell adenoma + follicular-cell c, dosed 104 weeks, study length 105 weeks): 84.3 mg/kg/day | TD50 (rat, strain Fischer 344, females, site: esophagus, lesion: squamous-cell papilloma, dosed 104 weeks, study length 105 weeks): 1410 mg/kg/day | TD50 (rat, strain Fischer 344, females, site: mammary gland, lesion: adenoma + carcinoma + fibroadenoma, dosed 104 weeks, study length 105 weeks): 83.8 mg/kg/day | TD50 (rat, strain Fischer 344, females, site: mammary gland, lesion: adenoma + fibroadenoma, dosed 104 weeks, study length 105 weeks): 83 mg/kg/day | TD50 (rat, strain Fischer 344, females, site: mammary gland, lesion: fibroadenoma, dosed 104 weeks, study length 105 weeks): 83 mg/kg/day | TD50 (rat, strain Fischer 344, females, site: palate + tongue, lesion: squamous-cell carcinoma + squamous-cell papilloma, dosed 104 weeks, study length 105 weeks): 1010 mg/kg/day | TD50 (rat, strain Fischer 344, females, site: palate + tongue, lesion: squamous-cell papilloma, dosed 104 weeks, study length 105 weeks): 1240 mg/kg/day | TD50 (rat, strain Fischer 344, females, site: pituitary gland, lesion: pars distalis adenoma, dosed 104 weeks, study length 105 weeks): 300 mg/kg/day | TD50 (rat, strain Fischer 344, females, site: subcutaneous tissue, lesion: fibrosarcoma + fibroma + sarcoma, dosed 104 weeks, study length 105 weeks): 1370 mg/kg/day | TD50 (rat, strain Fischer 344, females, site: subcutaneous tissue, lesion: fibrosarcoma + sarcoma, dosed 104 weeks, study length 105 weeks): 4200 mg/kg/day | TD50 (rat, strain Fischer 344, females, site: thyroid gland, lesion: follicular-cell adenoma + follicular-cell carcinoma, dosed 104 weeks, study length 105 weeks): 1670 mg/kg/day | TD50 (rat, strain Fischer 344, females, site: thyroid gland, lesion: follicular-cell adenoma, dosed 104 weeks, study length 105 weeks): 2160 mg/kg/day | TD50 (rat, strain Fischer 344, females, site: tongue, lesion: squamous-cell carcinoma + squamous-cell papilloma, dosed 104 weeks, study length 105 weeks): 1260 mg/kg/day | TD50 (rat, strain Fischer 344, females, site: tongue, lesion: squamous-cell papilloma, dosed 104 weeks, study length 105 weeks): 1360 mg/kg/day | TD50 (rat, strain Fischer 344, females, site: uterus, lesion: endometrial stromal polyp + endometrial stromal sarcoma, dosed 104 weeks, study length 105 weeks): 859 mg/kg/day | TD50 (rat, strain Fischer 344, females, site: uterus, lesion: endometrial stromal polyp, dosed 104 weeks, study length 105 weeks): 904 mg/kg/day | TD50 (rat, strain Fischer 344, males, site: Zymbal's gland, lesion: adenoma + carcinoma + carcinoma, bilateral, dosed 12 weeks, study length 103 weeks): 138 mg/kg/day | TD50 (rat, strain Fischer 344, males, site: Zymbal's gland, lesion: adenoma + carcinoma, dosed 104 weeks, study length 105 weeks): 1600 mg/kg/day | TD50 (rat, strain Fischer 344, males, site: Zymbal's gland, lesion: adenoma, dosed 104 weeks, study length 105 weeks): 1950 mg/kg/day | TD50 (rat, strain Fischer 344, males, site: Zymbal's gland, lesion: carcinoma + carcinoma, bilateral, dosed 12 weeks, study length 103 weeks): 138 mg/kg/day | TD50 (rat, strain Fischer 344, males, site: all sites + colon + esophagus + gingiva + jejunum + lung + mammary gland + palate + skin + subcutaneous tissue + thyroid gland + tongue + urinar, lesion: mononuclear-cell leukemia + mesothelioma, malignant + adenomatous polyp + squamous-cell papilloma + squamous-cell carcinoma + carc, dosed 104 weeks, study length 105 weeks): 68.1 mg/kg/day | TD50 (rat, strain Fischer 344, males, site: all sites, lesion: mesothelioma, malignant, dosed 12 weeks, study length 103 weeks): 28.4 mg/kg/day | TD50 (rat, strain Fischer 344, males, site: all sites, lesion: mesothelioma, malignant, dosed 104 weeks, study length 105 weeks): 335 mg/kg/day | TD50 (rat, strain Fischer 344, males, site: all sites, lesion: mononuclear-cell leukemia, dosed 12 weeks, study length 103 weeks): 22.5 mg/kg/day | TD50 (rat, strain Fischer 344, males, site: all sites, lesion: mononuclear-cell leukemia, dosed 104 weeks, study length 105 weeks): 95.8 mg/kg/day | TD50 (rat, strain Fischer 344, males, site: any site (literature study), lesion: several types, types named in the paper, dosed 12 weeks, study length 103 weeks): 6.25 mg/kg/day | TD50 (rat, strain Fischer 344, males, site: any site (literature study), lesion: several types, types named in the paper, dosed 104 weeks, study length 105 weeks): 63.8 mg/kg/day | TD50 (rat, strain Fischer 344, males, site: colon + rectum, lesion: adenomatous polyp + carcinoma, dosed 12 weeks, study length 103 weeks): 146 mg/kg/day | TD50 (rat, strain Fischer 344, males, site: colon + rectum, lesion: adenomatous polyp, dosed 12 weeks, study length 103 weeks): 152 mg/kg/day | TD50 (rat, strain Fischer 344, males, site: colon, lesion: adenomatous polyp, dosed 104 weeks, study length 105 weeks): 997 mg/kg/day | TD50 (rat, strain Fischer 344, males, site: esophagus, lesion: squamous-cell papilloma, dosed 104 weeks, study length 105 weeks): 1390 mg/kg/day | TD50 (rat, strain Fischer 344, males, site: forestomach, lesion: squamous-cell papilloma, dosed 12 weeks, study length 103 weeks): 217 mg/kg/day | TD50 (rat, strain Fischer 344, males, site: forestomach, lesion: squamous-cell papilloma, dosed 104 weeks, study length 105 weeks): 16000 mg/kg/day | TD50 (rat, strain Fischer 344, males, site: gingiva + palate + tongue, lesion: squamous-cell carcinoma + squamous-cell papilloma, dosed 104 weeks, study length 105 weeks): 285 mg/kg/day | TD50 (rat, strain Fischer 344, males, site: ileum + jejunum, lesion: carcinoma + adenomatous polyp, dosed 12 weeks, study length 103 weeks): 363 mg/kg/day | TD50 (rat, strain Fischer 344, males, site: ileum + jejunum, lesion: carcinoma, dosed 12 weeks, study length 103 weeks): 445 mg/kg/day | TD50 (rat, strain Fischer 344, males, site: jejunum, lesion: carcinoma, dosed 104 weeks, study length 105 weeks): 5660 mg/kg/day
